Blank lines part the entries; values can stand above or below the molecule they belong to.
Columns and labels:
[1] = biological target: T1, ADCYAP1R1 (Homo sapiens, UniProt P41586); assay: NanoBRET screen HiBiT-ADCYAP1R1 in HEK293; type: binding
T1 construct: purchased Promega (in-house HiBiT-GPCR construct library, NanoBRET)
T1 sequence (P41586 21-468): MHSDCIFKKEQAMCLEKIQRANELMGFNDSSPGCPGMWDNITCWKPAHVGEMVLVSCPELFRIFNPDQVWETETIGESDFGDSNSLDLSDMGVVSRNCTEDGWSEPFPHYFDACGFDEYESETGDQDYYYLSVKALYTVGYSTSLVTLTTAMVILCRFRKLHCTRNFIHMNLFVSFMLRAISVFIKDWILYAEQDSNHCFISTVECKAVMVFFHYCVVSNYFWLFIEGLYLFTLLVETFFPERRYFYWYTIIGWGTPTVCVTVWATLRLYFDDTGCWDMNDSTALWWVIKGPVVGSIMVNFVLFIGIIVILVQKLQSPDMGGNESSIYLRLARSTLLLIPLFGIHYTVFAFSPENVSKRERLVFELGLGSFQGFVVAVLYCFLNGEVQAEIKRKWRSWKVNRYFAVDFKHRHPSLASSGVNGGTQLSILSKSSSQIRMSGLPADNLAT
Description: (§1) Each tracer candidate was screened across the entire library of HiBiT-GPCR constructs using NanoBRET as the detection modality. As depicted in Figure 4A, the specificity of interactions was evaluated through decrease in BRET due to competitive displacement of a bound tracer by excess parental compound. Each tracer was analyzed for binding to each HiBiT-GPCR fusion in the absence and in the presence of competing parental compound. Briefly, HEK293 cells were transfected with HiBiT-GPCR constructs diluted into promoterless DNA to reduce expression and maximize translocation to the cell surface. Each tracer candidate was then screened at concentrations of 1 μM and 0.1 μM across cells expressing these fusions. Cells were treated for 1.5 h with tracer either alone or in the presence of 20 μM competing parental compound (i.e., control). BRET was measured upon addition of purified LgBiT and subsequent complementation with HiBiT genetically fused to a GPCR. The specificity of interactions was assessed through a decrease in BRET signal due to competitive displacement of the bound tracer. To further gauge the robustness of these interactions, the fold response over the control (i.e., BRETtracer/BRETcontrol) was calculated. We chose a 1.5-fold response, which translates to ≥7-fold signal over noise as the minimal threshold required to score an interaction as positive.
(§2) HiBiT-GPCR DNA constructs were diluted in 10 mM Tris pH 8 to a final concentration of 0.01 μg/μL, arrayed in 96-well plates and stored at −20 °C. For transfection, HEK293 cells were suspended in Opti-MEM (without phenol red) supplemented with 2% fetal bovine serum (Seradigm) and 100 units/mL penicillin–streptomycin (Gibco) at a final concentration of 220,000 cells/mL and dispensed into white 96-well plates at 90 μL/well. Subsequent transfections and screens were carried using an Agilent Bravo Automated Liquid Handling Platform. First, the 96-well HiBiT DNA arrays were diluted 25-fold in Opti-MEM (without serum or phenol red) to a final concentration of 0.0004 μg/μL and 20 μL of the diluted DNAs were transferred into new 96-well plates. Next, promoterless carrier DNA (1 μg/μL) was diluted 25-fold (0.04 μg/μL) and then dispensed into the diluted arrays at 20 μL/well. Following brief mixing, Viafect transfection reagent (Promega) diluted 16-fold into Opti-MEM was dispensed into the plates at 40 μL/well. After mixing by pipetting, plates were incubated for 10 min on the pipetting station deck. The DNA-transfection reagent complexes were then added to plates containing cells. To facilitate the screen, 10 μL of DNA-transfection reagent complexes were added in duplicates to the top 4 and bottom 4 rows, resulting in two identical 48-well arrays per plate. Plates with transfected cells were incubated for 18–20 h at 37 °C/5% CO2. A screen of each tracer across the entire library using two different concentrations requires duplicate plates of transfected cells. Depending on the number of tracers being screened, transfections can be scaled up using the same ratios. The next day, for each tracer, four 20× screening solutions in tracer dilution buffer (Promega) were prepared: two duplicates at final concentration of 20 μM and two duplicates at a final concentration of 2 μM. […] The four resulting solutions were diluted 4-fold in Opti-MEM without serum or phenol red to generate 5× solutions (5 µM and 0.5 µM tracer +/− 100 μM competing compound). To screen the library, a BioTek MultiFlo FX liquid dispenser was used to dispense 22.5 µL of tracer solution to the top 4 rows and 22.5 µL tracer + competing compound solution to the 4 bottom rows. Plates were briefly mixed on an orbital shaker and incubated for 1.5 h at room temperature. […] Plates were briefly mixed on an orbital shaker and incubated for 15 min to allow complementation.

[2] = biological target: T2, FZD10 (Homo sapiens, UniProt Q9ULW2); assay: NanoBRET screen HiBiT-FZD10 in HEK293; type: binding
T2 construct: purchased Promega (in-house HiBiT-GPCR construct library, NanoBRET)
T2 sequence (Q9ULW2 21-581): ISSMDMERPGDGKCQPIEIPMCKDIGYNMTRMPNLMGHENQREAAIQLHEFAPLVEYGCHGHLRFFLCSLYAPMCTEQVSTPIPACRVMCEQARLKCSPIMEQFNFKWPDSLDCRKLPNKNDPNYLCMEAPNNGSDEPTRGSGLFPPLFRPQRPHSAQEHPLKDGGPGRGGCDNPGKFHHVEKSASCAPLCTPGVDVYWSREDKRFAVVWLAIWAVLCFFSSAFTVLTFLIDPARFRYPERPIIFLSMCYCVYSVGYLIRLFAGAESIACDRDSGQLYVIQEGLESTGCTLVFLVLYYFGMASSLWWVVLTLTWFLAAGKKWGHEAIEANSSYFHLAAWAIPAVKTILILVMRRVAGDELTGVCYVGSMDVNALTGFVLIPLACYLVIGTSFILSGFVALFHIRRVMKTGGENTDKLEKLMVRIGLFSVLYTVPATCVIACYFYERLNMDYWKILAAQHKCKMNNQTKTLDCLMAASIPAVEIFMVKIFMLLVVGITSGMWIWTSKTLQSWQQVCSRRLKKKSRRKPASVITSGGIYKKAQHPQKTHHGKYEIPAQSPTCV
Description: as §1, §2

NanoBRET Fold Response ([1]; ADCYAP1R1, 0.1μM): 0.93
NanoBRET Fold Response ([1]; ADCYAP1R1, 1μM): 0.96
NanoBRET Fold Response ([2]; FZD10, 0.1μM): 1.01
NanoBRET Fold Response ([2]; FZD10, 1μM): 1.02
SMILES: CCOC(=O)c1cc(C#N)c(N2CCC(C(=O)NS(=O)(=O)Cc3ccccc3/C=C/C(=O)NCCNC(=O)CCc3ccc4n3[B-](F)(F)[N+]3=C(c5ccc[nH]5)C=CC3=C4)CC2)nc1C [AZD1283-1-NB590]

NanoBRET Fold Response ([1]; ADCYAP1R1, tracer 0.1μM): 1.00
NanoBRET Fold Response ([1]; ADCYAP1R1, tracer 1μM): 1.01
NanoBRET Fold Response ([2]; FZD10, tracer 0.1μM): 0.99
NanoBRET Fold Response ([2]; FZD10, tracer 1μM): 0.99
SMILES: N#CN=C(NCCCOc1cccc(CN2CCCCC2)c1)NCCNC(=O)CCOCCOCCOCCOCCNC(=O)CCc1ccc2n1[B-](F)(F)[N+]1=C(c3ccc[nH]3)C=CC1=C2 [Aminopotentidine-2-NB590]

SMILES: CN(C)CCC=C1c2ccccc2CCc2ccc(C(=O)NCCNC(=O)CCOCCOCCOCCOCCNC(=O)CCc3ccc4n3[B-](F)(F)[N+]3=C(c5ccc[nH]5)C=CC3=C4)cc21 [Amitriptyline-a-2-NB590]
NanoBRET Fold Response ([2]; tracer at 0.1μM): 0.97
NanoBRET Fold Response ([2]; tracer at 1μM): 1.01

SMILES: CN(C)CCC=C1c2ccccc2CCc2ccc(C(=O)NCCNC(=O)CCOCCOCCOCCOCCNC(=O)CCc3ccc4n3[B-](F)(F)[N+]3=C(c5ccc[nH]5)C=CC3=C4)cc21 [Amitriptyline-b-2-NB590]
NanoBRET Fold Response ([1]; ADCYAP1R1, tracer 0.1μM): 0.99
NanoBRET Fold Response ([1]; ADCYAP1R1, tracer 1μM): 0.99
NanoBRET Fold Response ([2]; tracer at 0.1μM, listed as amitriptyline-b-2-NB590): 0.18
NanoBRET Fold Response ([2]; tracer at 1μM): 0.99

SMILES: CN(CCC=C1c2ccccc2CCc2ccccc21)C(=O)CCOCCOCCOCCOCCNC(=O)CCc1ccc2n1[B-](F)(F)[N+]1=C(c3ccc[nH]3)C=CC1=C2 [Amitriptyline-e-2-NB590]
NanoBRET Fold Response ([2]; tracer at 1μM): 1.01

NanoBRET Fold Response ([1]; 0.1μM tracer): 0.76
NanoBRET Fold Response ([1]; 1μM tracer): 0.54
NanoBRET Fold Response ([2]; 0.1μM tracer): 0.93
NanoBRET Fold Response ([2]; 1μM tracer): 0.93
SMILES: COc1ccc2c(n1)c(CCNC(C)=O)cn2CCNC(=O)CCc1ccc2n1[B-](F)(F)[N+]1=C(c3ccc[nH]3)C=CC1=C2 [Azamelatonin-1-NB590]

NanoBRET Fold Response ([1]; 0.1μM tracer): 1.08
NanoBRET Fold Response ([1]; 1μM tracer): 0.91
NanoBRET Fold Response ([2]; 0.1μM tracer): 0.96
NanoBRET Fold Response ([2]; 1μM tracer): 0.89
SMILES: COc1ccc2[nH]c(-c3ccc(CNC(=O)CCOCCOCCOCCOCCNC(=O)CCc4ccc5n4[B-](F)(F)[N+]4=C(c6ccc[nH]6)C=CC4=C5)cc3)c(CCNC(C)=O)c2n1 [AzomelatoninICO9-2-NB590]

NanoBRET Fold Response ([1]; ADCYAP1R1, 0.1μM tracer): 1.00
NanoBRET Fold Response ([1]; ADCYAP1R1, 1μM tracer): 1.06
NanoBRET Fold Response ([2]; FZD10, 0.1μM tracer): 1.01
NanoBRET Fold Response ([2]; FZD10, 1μM tracer): 0.99
SMILES: O=C(CCOCCOCCOCCOCCNC(=O)CCc1ccc2n1[B-](F)(F)[N+]1=C(c3ccc[nH]3)C=CC1=C2)NCCCN1CCN(C2=Nc3cc(Cl)ccc3Nc3ccccc32)CC1 [Clozapine-a-2-NB590]

SMILES: CN1CCN(C2=Nc3cc(Cl)ccc3Nc3ccc(CNC(=O)CCOCCOCCOCCOCCNC(=O)CCc4ccc5n4[B-](F)(F)[N+]4=C(c6ccc[nH]6)C=CC4=C5)cc32)CC1 [Clozapine-b-2-NB590]
NanoBRET Fold Response ([1]; ADCYAP1R1, 0.1μM tracer): 1.04
NanoBRET Fold Response ([1]; ADCYAP1R1, 1μM tracer): 1.09
NanoBRET Fold Response ([2]; FZD10, 0.1μM tracer): 1.01
NanoBRET Fold Response ([2]; FZD10, 1μM tracer): 1.08

SMILES: CN1CCN(C2=Nc3cc(Cl)ccc3N(CC(=O)NCCOCCOCCOCCOCCNC(=O)CCc3ccc4n3[B-](F)(F)[N+]3=C(c5ccc[nH]5)C=CC3=C4)c3ccccc32)CC1 [Clozapine-c-2-NB590]
NanoBRET Fold Response ([1]; ADCYAP1R1, 0.1μM tracer): 0.97
NanoBRET Fold Response ([1]; ADCYAP1R1, 1μM tracer): 1.07
NanoBRET Fold Response ([2]; FZD10, 0.1μM tracer): 1.00

SMILES: O=C(CCOCCOCCOCCOCCNC(=O)CCc1ccc2n1[B-](F)(F)[N+]1=C(c3ccc[nH]3)C=CC1=C2)NCCCN1CCN(C2=Nc3ccccc3Oc3ccc(Cl)cc32)CC1 [Loxapine-a-2-NB590]
NanoBRET Fold Response ([1]; ADCYAP1R1, tracer 0.1μM): 1.03
NanoBRET Fold Response ([1]; ADCYAP1R1, tracer 1μM): 1.20
NanoBRET Fold Response ([2]; FZD10, tracer 0.1μM): 0.98
NanoBRET Fold Response ([2]; FZD10, tracer 1μM): 0.99

SMILES: COc1ccccc1N1CCN(CCCCN2C(=O)c3ccc(CNC(=O)CCOCCOCCOCCOCCNC(=O)CCc4ccc5n4[B-](F)(F)[N+]4=C(c6ccc[nH]6)C=CC4=C5)cc3C2=O)CC1 [NAN-190-2-NB590]
NanoBRET Fold Response ([1]; ADCYAP1R1, tracer 0.1μM): 1.08
NanoBRET Fold Response ([1]; ADCYAP1R1, tracer 1μM): 1.04
NanoBRET Fold Response ([2]; FZD10, tracer 0.1μM): 0.99
NanoBRET Fold Response ([2]; FZD10, tracer 1μM): 1.04

— publication PMC8151276, “An Integrated Approach toward NanoBRET Tracers for Analysis of GPCR Ligand Engagement” (Molecules, 2021)
